The values that follow come from patent US20240197722A1, “ANTICANCER COMPOSITION INDUCING CELL SENESCENCE AND CELL DEATH” (OSTEONEUROGEN INC., priority 2021, published 2024).

The subject of series [1] is A549 cells. Kind of series: Immunocytochemistry for cell senescence morphology in A549 cells. In kind it is cell-based. To be noted: A549, 20 μM each, 72 hours, FIG. 1. How it is done:
The cells were incubated with Rhodamine Phalloidin (Thermo Fisher, Massachusetts, US) for 4 hours at room temperature. After washing, the cells were incubated with Alexa Fluor 488 (Abcam, Cambridge, UK)-conjugated secondary antibody. Images were analyzed by using EVOS M7000 (Invitrogen, CA, USA). Nuclei were counterstained with DAPI.

Series [2] deals with A549 cells. Kind of series: Cell changes of TGFβ-stimulated A549 cells. In kind it is cell-based. The conditions noted are these: TGFβ-stimulated A549, 10 μM.
Series [3] relates to A549 cells. Kind of series: Immunocytochemistry for cell senescence and multinucleation of A549 cells over time. In kind it is cell-based. To be noted: A549, 10 μM. An excerpt: ZEB1, which is an epithelial-mesenchymal transition (EMT) positive regulator, was used as an expression control.
Series [4] deals with A549 cells. Kind of series: Western blot of cell cycle kinases in A549 cells. It counts as cell-based. The conditions noted are these: A549, 50 μM, 24 hours.
Series [5] relates to A549 cells. Kind of series: PI staining cell cycle analysis of A549 cells. In kind it is cell-based. To be noted: A549, 50 μM. How it is done:
After 24 hours, the cells were harvested and fixed in cooled 70% ethanol, and then stained with propidium iodide containing 200 ug/mL RNase (Abcam, 139418) in the dark at 37° C. for 30 minutes. Each phase of the cell cycle was identified by using Accuri C6 Plus (BD Bioscience).

In another series the test system is normal cells. Kind of series: Additional Caspase3/7 analysis in normal cells. It counts as cell-based, human. The conditions noted are these: data not shown.

Turning to `COc1ccc(-c2cc(=O)c3c(O)c(OC)c(OCCN4CCNC(=O)C4)cc3o2)cc1OC` [ONG41008], the “cell flatness (morphological change of cell senescence)” value with A549 cells [1] is listed as “specifically observed”. Besides, in the series with A549 cells [2], the “day from which a significant portion of cells started to die” value worked out at 6 days and the “day on which complete apoptosis was induced” value was 15 days. For the same molecule, the “time of treatment with the greatest number of multinucleation” value in the series with A549 cells [3] is 48 h. For the same molecule, in the series with A549 cells [3] (24 hours), the cell flattening entry is “clearly confirmed” and the multinucleation entry was “multinucleation was also observed”. Further, in the series with A549 cells [4], the CDK2 expression entry is “inhibited” and the CDK6 expression entry is “inhibited”. Moreover, the cell cycle arrest result in the series with A549 cells [5] is “arrest of the G1-S-G2 phase”. The “caspase3/7 activity in normal cells” value in the series with normal cells is “did not induce caspase3/7 activity”.
